Experimental data as given in patent US11076595B2, “1-(n,n-disubstituted carbamoyl) 4-(substituted sulfonyl)triazolin-5-one derivative, 4-(n,n-disubstituted carbamoyl) 1-(substituted sulfonyl)triazolin-5-one derivative, and herbicide containing said derivative as active ingredient” (HOKKO CHEMICAL INDUSTRY CO., LTD., priority 2017, dated 2021).

Assays:
Type in all cases: in vivo
Echinochloa crus-galli [1] = test: Test Example 11: herbicidal effect test by soil treatment in paddy field; settings: 120 g/10a active ingredient, 14 days after treatment
Procedure, shortened: (§1)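 Puddled paddy soil with N:P:K 17:17:17 fertilizer in Wagner pots; 30 seeds per species sown at 0–1 cm, flooded to about 3 cm, kept in a glass greenhouse. Water-diluted emulsifiable concentrate dripped in immediately after sowing at 120 g a.i. per 10 are. Suppression from dry weight versus untreated at 14 days.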

Lindernia pyxidaria [2] = test: as above; settings: 120 g/10a active ingredient, 14 days after treatment
Procedure, shortened: as §1

Monochoria vaginalis [3] = test: as above; settings: 120 g/10a active ingredient, 14 days after treatment
Procedure, shortened: as §1

Scirpus juncoides [4] = test: as above; settings: 120 g/10a active ingredient, 14 days after treatment
Procedure, shortened: as §1

Echinochloa crus-galli [5] = test: Test Example 12: herbicidal effect test by treatment during growing period in paddy field; settings: 120 g/10a; treatment seven days after sowing in flooded paddy pot; assessed 14 days after treatment
Procedure, shortened: (§2)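 Puddled, fertilized paddy soil in Wagner pots, sown with 30 seeds per species at 0–1 cm and flooded to ~3 cm in a glass greenhouse. Emulsifiable concentrate dripped into water 7 days after sowing at 120 g a.i. per 10 are. Suppression % from dry weight vs untreated, 14 days post-treatment, two replicates.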

Lindernia pyxidaria [6] = test: as above; settings: 120 g/10a; treatment seven days after sowing in flooded paddy pot; assessed 14 days after treatment
Procedure, shortened: as §2

Monochoria vaginalis [7] = test: as above; settings: 120 g/10a; treatment seven days after sowing in flooded paddy pot; assessed 14 days after treatment
Procedure, shortened: as §2

Scirpus juncoides [8] = test: as above; settings: 120 g/10a; treatment seven days after sowing in flooded paddy pot; assessed 14 days after treatment
Procedure, shortened: as §2

Amaranthus viridis [9] = test: Test Example 13: herbicidal effect test by soil treatment in upland field; settings: 120 g/10a, 14 days after treatment
Description: (§3) A pot having a size of 36 cm^2 was filled with field soil (alluvial soil) and after mixing the soil of the surface layer of 1 cm with 20 grains of each weed seed of crabgrass, Echinochloa crus-galli, Chenopodium album and Amaranthus viridis, the surface layer was pressed lightly. One day after the sowing, an emulsifiable concentrate prepared according to Formulation Example 15 by using the compound shown in Table 11 below was diluted with water, and the water-diluted formulation was sprayed on the soil surface at a ratio of 100 liter per 10 are. The application rate of the active ingredient, by conversion, corresponded to 120 g per 10 are. Fourteen Days after the formulation treatment, the herbicidal effect was evaluated by the same criteria as in Test Example 11.

Chenopodium album [10] = test: as above; settings: 120 g/10a, 14 days after treatment
Description: as §3

Echinochloa crus-galli [11] = test: as above; settings: 120 g/10a, 14 days after treatment
Description: as §3

crabgrass [12] = test: as above; settings: 120 g/10a, 14 days after treatment
Description: as §3

Chenopodium album [13] = test: Test Example 14: herbicidal effect test by foliage treatment in upland field; settings: 7 days after sowing, 120 g/10a, 14 days after treatment
Procedure, shortened: (§4)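 Emulsifiable concentrate, water-diluted, is applied post-emergence to 7-day-old sowings in field soil at 120 g active ingredient per 10 are. The weed suppression rate derives from average dry weights versus untreated controls, measured 14 days later.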

crabgrass [14] = test: as above; settings: 7 days after sowing, 120 g/10a, 14 days after treatment
Procedure, shortened: as §4

Amaranthus viridis [15] = test: as above; settings: 7 days after sowing, 120 g/10a, 14 days after treatment
Procedure, shortened: as §4

Echinochloa crus-galli [16] = test: as above; settings: 7 days after sowing, 120 g/10a, 14 days after treatment
Procedure, shortened: as §4

| SMILES | Weed suppression rate (%) Echinochloa crus-galli (Echinochloa crus-galli [1]) | Weed suppression rate (%) Lindemia pyxidaria (Lindernia pyxidaria [2]) | Weed suppression rate (%) Monochoria vaginalis (Monochoria vaginalis [3]) | Weed suppression rate (%) Scirpus juncoides (Scirpus juncoides [4]) | Weed suppression rate (%) Echinochloa crus-galli (Echinochloa crus-galli [5]) | Weed suppression rate (%) Lindemia pyxidaria (Lindernia pyxidaria [6]) | Weed suppression rate (%) Monochoria vaginalis (Monochoria vaginalis [7]) | Weed suppression rate (%) Scirpus juncoides (Scirpus juncoides [8]) | herbicidal effect, Amaranthus viridis (Amaranthus viridis [9]) | herbicidal effect, Chenopodium album (Chenopodium album [10]) | herbicidal effect, Echinochloa crus-galli (Echinochloa crus-galli [11]) | herbicidal effect, Crabgrass (crabgrass [12]) | herbicidal effect, Chenopodium album (Chenopodium album [13]) | herbicidal effect, Crabgrass (crabgrass [14]) | herbicidal effect, Amaranthus viridis (Amaranthus viridis [15]) | herbicidal effect, Echinochloa crus-galli (Echinochloa crus-galli [16]) |
| --- | --- | --- | --- | --- | --- | --- | --- | --- | --- | --- | --- | --- | --- | --- | --- | --- |
| CC(C)N(C(=O)n1cnn(S(=O)(=O)C(C)C)c1=O)c1c(F)c(F)cc(F)c1F [Compound 11-64] | 100% | 100% | 90% | 100% | 100% | 80% | 90% | 100% | 60% | 60% | 100% | 100% | 60% | 100% | 60% | 90% |
| CC(C)N(C(=O)n1cnn(S(=O)(=O)C2CC2)c1=O)c1c(F)cc(F)cc1F [Compound 11-195] | 100% | 100% | 80% | 100% | 100% | 70% | 90% | 90% | 90% | 90% | 100% | 100% | 70% | 100% | 30% | 100% |
| CC(C)N(C(=O)n1cnn(S(=O)(=O)C2CC2)c1=O)c1ncc(Cl)cc1Cl [Compound 11-234] | 90% | 90% | 80% | 90% | 90% | 90% | 90% | 90% | 90% | 80% | 80% | 90% | 80% | 90% | 90% | 80% |
| Cc1ccc(N(C(=O)n2cnn(S(=O)(=O)C3CC3)c2=O)C(C)C)c(F)c1 [Compound 11-212] | 100% | 90% | 80% | 90% | 90% | 80% | 80% | 90% | 60% | 60% | 100% | 100% | 80% | 90% | 90% | 80% |
| CC(C)CS(=O)(=O)n1ncn(C(=O)N(c2ccc(F)cc2F)C(C)C)c1=O [Compound 11-94] | 100% | 100% | 100% | 90% | 100% | 100% | 90% | 90% | 80% | 90% | 100% | 100% | 90% | 90% | 50% | 90% |
| CC(C)N(C(=O)n1cnn(S(=O)(=O)c2ccc(C(C)(C)C)cc2)c1=O)c1ccc(F)cc1F [Compound 11-682] | 100% | 90% | 90% | 90% | 90% | 90% | 90% | 80% | 40% | 40% | 90% | 80% |  |  |  |  |
| CC(C)N(C(=O)n1cnn(S(=O)(=O)c2cccs2)c1=O)c1c(F)cccc1F [Compound 11-1024] | 100% | 80% | 70% | 80% | 100% | 80% | 90% | 90% | 60% | 60% | 70% | 100% |  |  |  |  |
| CC(C)N(C(=O)n1cnn(S(=O)(=O)c2ccccc2F)c1=O)c1c(F)cc(F)cc1F [Compound 11-406] | 100% | 100% | 80% | 80% | 100% | 70% | 80% | 80% | 30% | 30% | 100% | 90% |  |  |  |  |
| CCN(CC)C(=O)n1cnn(S(=O)(=O)c2cccc(Cl)c2)c1=O [Compound 11-538] | 50% | 40% | 40% | 40% | 70% | 70% | 70% | 70% | 40% | 40% | 80% | 60% |  |  |  |  |
| CC(C)N(C(=O)n1cnn(S(=O)(=O)c2ccccc2C(F)(F)F)c1=O)c1ccc(F)cc1F [Compound 11-711] | 90% | 90% | 90% | 90% | 60% | 70% | 70% | 60% | 50% | 50% | 100% | 90% |  |  |  |  |
| CC(C)N(C(=O)n1cnn(S(=O)(=O)c2cccc(Cl)c2)c1=O)c1ccc(F)cc1F [Compound 11-550] | 90% | 90% | 80% | 80% | 70% | 90% | 90% | 80% | 0% | 0% | 90% | 90% |  |  |  |  |
